Measurements as given in US20120010178A1, “METHODS AND COMPOUNDS FOR TREATMENT OF NEURODEGENERATIVE DISORDERS” (PRESIDENT AND FELLOWS OF HARVARD COLLEGE, priority 2008, published 2012).
“Also recorded” adds a separate entry of the source. Read-outs that look alike come from different tables or passages of the source. Each block holds one molecule with its values, some of them ahead of it.

How the values were obtained:
SMN [1] = assay: High-content fibroblast screen for compounds that modulate SMN level; details: human fibroblasts, 2-3 days with compound;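 further: Anti-SMN immunostaining with confocal imaging of nuclear and cytoplasmic SMN and gem counts, tested at 0.1, 1 and 10 uM, fold change relative to negative control wells on each plate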
Experimental: Human fibroblasts were incubated for 2-3 days with compounds from annotated collections. Cells were fixed and stained with an anti-SMN antibody. Confocal imaging was used to quantify SMN fluorescence in nucleus and cytoplasm and count Gems. Data were collected and subsequently analyzed by clustering compounds by suspected mechanism of action and chemical structure.
Following optimization of assay conditions on day 0, total of 500 human fibroblasts (GM09677 line) per well were seeded in 384-well plates, on day 3 they were treated with compounds (robot CyBio) from the annotated collections and on the 5 day plates were fixed and stained (robot MAPD) with an anti-SMN antibody and secondary antibody conjugated with 448 fluorophore (FIG. 19a). Compounds from the libraries were added in duplicate at three final concentrations of 10, 1 and 0.1 uM.
SMN detection was done on the automated confocal microscope Opera PerkinElmer with separate fluorescent exposures to 488 nM laser for and a UV light source to detect nuclei stained with Hoechst 33258 with a 20× objective.
After scanning on the Opera, an XML file extraction workflow, designed with Inforsense KDE, was used to assemble the data from multiple replicate plates of each HCS experiment including the quantitative parameters described above and chemical identities, chemical concentrations and indications of which wells were used for positive and negative controls. […] The fold-induction of SMN intensity values for each well treated with a library chemical were normalized to the SMN average intensity in multiple negative control wells per plate.
Since it is not known which form of SMN increase is the most essential, hits that scored in a duplicate at least in two different parameters greater than 1.3 fold at any of the three concentrations were selected (FIG. 19d). […] Further, 220 compounds were screened in the absence of anti-SMN primary antibody with the same assay conditions, to filter out the fluorescent compounds.

SMN [2] = assay: SMN immunofluorescence quantification (cytoplasm, nucleus, GEMs) in fibroblasts from SMA patients; format: cell-based, human; details: for levels of cytoplasmic and nuclear SMN (in words): SMA patient fibroblasts, substance alone
Experimental: Specifically, fibroblasts from patients suffering from SMA were treated with Ionomycin (a channel modulator), Ouabain (a cardiac glycoside and channel modulator), PDGF, SAHA (an HDAC inhibitor), Lactacystin (a proteasome inhibitor) or WIN 55,212-2 (a cannabinoid receptor […] and GPCR ligand) for 72 hours. The cells were fixed with methanol/acetone and stained with Pharmingen BD antibodies, followed by 488 AlexaFluor staining. Images were obtained with 60× lens on Zeiss LSM510 META on an inverted confocal microscope.
For example, fibroblasts from patients suffering from SMA were treated with Ouabain, Digoxin or Lanatoside at a concentration of 0, 2.5 nM, 5 nM, 10 nM, 20 nM, 40 nM, 80 nM, […] for 72 hours. The cells were fixed with methanol/acetone and stained with Pharmingen BD antibodies, followed by 488 AlexaFluor staining. Images were obtained with 60× lens on Zeiss LSM510 META on an inverted confocal microscope.
An assay was established for high-content evaluation of SMN protein level in different cellular compartments after treatment with small molecules. SMN protein was visualized by immunofluorescent staining and multiple fields from each plate well were scanned by an automated confocal Opera microscope. […] For each well, the algorithm generated quantitative parameters representing number of cells, as well as SMN fluorescent intensity per cell in cytoplasm, nucleus, number and intensity of GEMs (FIG. 15). […] During the assay transfer to the robotic platform fixation with the ice cold methanol was technically limited, therefore to preserve the maximum possible window we chose to perform the screen on parental fibroblast with PFA fixation.
For fibroblast assays, human fibroblasts lines GM09677 (derived from patient with SMA type 1 disease) and GM03814 (derived from unaffected parental SMA carriers) were used (Coriell Cell Repositories). […] For secondary assays cells from GM09677 line were used.
Fibroblasts were grown in MEM media (Invitrogen) supplemented with 5% Fetal Bovine Serum (FBS, Invitrogen), 2 mM glutamine and 1% penicillin-streptomycin (100 U/ml) in a presence of 5% CO2 at 37° C. For drug treatments, cells were plated and treated 24 h later with 10 μM MG132 (Biomol International), […] Calpeptin (Biomol International), 10 mM ammonium chloride, 1 μM myristoylated PKI, or vehicle for the designated times.
(§1) Compounds were stored at appropriate temperature and dissolved accordingly to the manufacturers (Tocris, Enzo, EMD and Sigma-Aldrich) in DMSO (Sigma-Aldrich), unless stated otherwise (Monensin Na in EtOH, DMPQ in water). Growth factors and PDGF neutralizing antibodies (R&D Systems) were reconstituted with buffers recommended by the supplier. For generation of the dose curves, 1×10^3 fibroblasts were plated on to 96-well Greiner Senso plates (VWR) and treated with compounds on the second day then fixed and stained at the indicated time points. For GSK inhibitors and performing p-GSK3b(Ser9) detection, two days after plating growth media containing 5% FBS was replaced to the media with FBS reduced down to 0.5%, to starve cells for 72 hours. Addition of the GSK inhibitors was done in 5% FBS enriched media.

[3] = target: T1, GSK3b (Ser-9 phosphorylation) (Homo sapiens, UniProt P49841); assay: p-GSK(Ser9) phosphorylation in patient fibroblasts (western blot / immunofluorescence); format: cell-based
T1 construct: endogenous in cells; host or cells: SMA patient fibroblasts (GM09677), starved in 0.5% FBS before treatment
Experimental: as §1, with “media. As previously described, starvation increases levels of constitutively activate GSK3b kinase, allowing to achieve a more dramatic inhibitory effect when GSK inhibitors are added together with growth factors that are also known to inhibit GSK by Ser-9 phosphorylation. […] For all compounds and growth factors control wells received solvent in amount equivalent to the highest concentration of the compound in a dose curve. For PDGF inhibitory studies, cells were pre-treated with kinase inhibitors for 2 hours and PDGF was added with a fresh kinase inhibitor solution and incubated for an additional 3 days.” for “media.”

SMN [4] = assay: Inhibition of PDGF-stimulated SMN increase in fibroblasts by kinase/receptor inhibitors; format: cell-based, human; details: SMA patient fibroblasts, PDGF plus inhibitor or neutralizing antibody
Experimental: Fibroblasts from patients suffering from SMA were treated with PDGF at a concentration of 0, 0.3 ng/ml, 0.63 ng/ml, 1.25 ng/ml, 2.5 ng/ml, 5 ng/ml, 10 ng/ml or 20 ng/ml, in the absence or in the presence of 25 uM DMPQ or 25 uM AG-1296 respectively for 72 hours. The levels of both cytoplasmic and nuclear SMN were detected and quantified using the method described in Example 2.
(§2) Fibroblasts from patients suffering from SMA were either control treated or treated with PDGF at a concentration of 0, 0.63 ng/ml, 1.25 ng/ml, 2.5 ng/ml, 5 ng/ml, 10 ng/ml or 20 ng/ml, in the absence or in the presence of 50 uM LY294002 or 2 uM P1-103 respectively for 72 hours. The levels of both cytoplasmic and nuclear SMN were detected and quantified using the method described in Example 2.
as §2, with “of” for “of 50 uM LY294002 or”, “uM Papamycin” for “uM P1-103 respectively”, “Example x.” for “Example 2.”
A range of concentrations were tested in order not to miss the effects. SMN level were evaluated by Opera Evoteck in each cellular compartment and to assess the cell numbers that are summarized in the Table 3.
as §1, with “media. As previously described, starvation increases levels of constitutively activate GSK3b kinase, allowing to achieve a more dramatic inhibitory effect when GSK inhibitors are added together with growth factors that are also known to inhibit GSK by Ser-9 phosphorylation. […] For all compounds and growth factors control wells received solvent in amount equivalent to the highest concentration of the compound in a dose curve. For PDGF inhibitory studies, cells were pre-treated with kinase inhibitors for 2 hours and PDGF was added with a fresh kinase inhibitor solution and incubated for an additional 3 days.” for “media.”

PC12 cells = details: cited from earlier work
SMN [5] = assay: SMN levels in mouse (ES-cell derived) motor neurons; format: cell-based; details: for SMN levels in motor neurons (in words): mouse motor neurons
Experimental: Mouse HB9-GFP derived SMN deficient motor neuron cells were incubated for 2 days with compounds from libraries and collections.
Motor neurons were produced from mouse ES-cells expressing cherry fluorescent protein (CFP) under the control of the motor neuron-selective Hb9 promoter, as previously described (Wichterle et al., 2002).
GFP expressing motor neurons were derived from mouse ES cells as described below. After growing for approximately 1 week, motor neurons were treated with allsterpaullone. Two days after treatment with allsterpaullone, cells were fixed and stained with SMN antibody or GFP antibody.
mES cells were differentiated into motor neurons according to methods adapted from Wichterle et. al., Cell (2002), 110:385-397. Briefly, mES cells were grown to 70-80% confluence in 10-cm plates (Falcon) in ES cell medium. To form embryoid bodies, cells were washed once with PBS to eliminate mES medium and then incubated with 1 ml of 0.25% trypsin (GIBCO) for 5-10 min at 21-25° C. (RT). Cells were then resuspended in 10 ml of DM1 medium (DMEM-F12, GIBCO), 10% knockout serum (GIBCO), penicillin, streptomycin, glutamine (GIBCO) and 2-mercaptoethanol (GIBCO), counted and plated at a concentration of 200,000 cells per ml in Petri dishes (Falcon). Two days later, embryoid bodies were collected and resuspended into new Petri dishes containing DM1 medium supplemented with RAc (100 nM; stock 1 mM in DMSO, Sigma) and HhAg (100 nM). […] treatment was repeated with the same concentration of RAc (100 nM) and high concentration of HhAg (1 μM). On day 6, the embryoid bodies were collected in a 15-ml Falcon tube, and incubated in Earle's balanced salt solution with 20 units of Papain and 1,000 units of DNase I (Worthington Biochemical) for 10 min at 37° C. The mixture was then triturated with a 10-ml pipette and centrifugated for 5 min at 800 rpm. The resulting cell pellet was washed with PBS and resuspended in F12 medium (F12 medium, GIBCO) with 2% fetal bovine serum (GIBCO), B-27 supplement (GIBCO), (GDNF and BDNF, 20 ng ml^−1, R&D Systems). The cells were counted and plated on poly-ornithine coated 96-well plates (VWR).

motor neurons = assay: Motor neuron survival (mouse motor neurons, compound treatment); format: cell-based
Experimental: Mouse motor neurons were treated with […] inhibitors. The levels of both cytoplasmic and nuclear SMN were detected and quantified using the method described in Example 2. The results shown in FIG. 14b indicate that […] inhibitors increase motor neuron survival.
Another way of assessing motor neuron survival is by withdrawing the neurotrophic factors from the media. Briefly, motor neurons are grown in media containing neurotrophic factors. The neurotrophic factors are then withdrawn from the growth media, e.g., cells transferred to media having no neurotrophic factors or neurotrophic factor containing media exchanged with neurotrophic factors lacking media. The compound of interest is added and motor neurons are counted on a daily basis.

T1 sequence (P49841 whole entry): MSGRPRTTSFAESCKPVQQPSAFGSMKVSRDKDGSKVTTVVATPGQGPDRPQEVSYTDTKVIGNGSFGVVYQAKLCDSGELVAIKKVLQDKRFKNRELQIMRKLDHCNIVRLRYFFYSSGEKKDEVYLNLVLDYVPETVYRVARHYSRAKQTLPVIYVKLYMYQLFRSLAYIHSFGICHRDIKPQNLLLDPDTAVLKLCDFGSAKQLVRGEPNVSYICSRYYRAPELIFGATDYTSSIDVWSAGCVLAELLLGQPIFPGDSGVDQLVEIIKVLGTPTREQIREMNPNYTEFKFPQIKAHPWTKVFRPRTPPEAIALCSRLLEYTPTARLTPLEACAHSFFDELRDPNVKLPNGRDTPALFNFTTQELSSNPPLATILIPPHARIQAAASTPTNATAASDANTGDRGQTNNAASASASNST

- p-GSK-Ser9 phosphorylation (in words) ([3]; patient fibroblasts): promoted phosphorylation of p-GSK-Ser9
Molecule: COc1ccc(CNC(=O)Nc2ncc([N+](=O)[O-])s2)cc1 [AR-A014418]
- SMN level in fibroblast screen (increase or decrease) (SMN [1]): SMN is increase
- SMN level fold increase (SMN [2]; at a concentration of 23 μM): 2 fold

Molecule: COc1cc(OC)c2cc(-c3ccncc3)cnc2c1.Cl.Cl [DMPQ]
- PDGF-stimulated SMN increase in presence of inhibitor (in words) (SMN [4]): sufficient to prevent PDGF effect on SMN; also recorded: abrogated; also recorded: blocked; also recorded: abolished
- SMN level in fibroblast screen (increase or decrease) (SMN [1]): decreased SMN
- levels of cytoplasmic and nuclear SMN (in words) (SMN [2]): decreases
- levels of cytoplasmic and nuclear SMN (in words) (SMN [2]; listed as DMPQ dihydrochloride): decrease

Molecule: Cn1cc(C2=C(c3ccc(Cl)cc3Cl)C(=O)NC2=O)c2ccccc21 [SB216763]
- protection from EGTA induced death (PC12 cells): able to protect PC12 cells from EGTA induced death

Molecule: CC(/C=C/C(=O)NO)=C\[C@@H](C)C(=O)c1ccc(N(C)C)cc1 [Trichostatin]
- SMN levels in motor neurons (in words) (SMN [5]): increase SMN
- SMN levels in motor neurons (in words) (SMN [5]; listed as Trichastatin): increase SMN levels
- effect on GEMs (number / intensity, in words) (SMN [2]; fibroblasts): increased GEM counts at the lower concentrations
- nuclear SMN at the higher dosage (in words) (SMN [2]; fibroblasts, higher dosage): increased nuclear SMN predominantly

Molecule: COc1cc2c(cc1OC)[C@@H]1C(=O)c3ccc4c(c3O[C@@H]1CO2)C=CC(C)(C)O4 [deguelin]
- spot intensity in ES-derived motor neurons (SMN [5]): decrease
- SMN levels in motor neurons (in words) (SMN [5]): decrease

Molecule: O=C1Cc2c([nH]c3ccc(Br)cc23)-c2ccccc2N1 [kenpaullone, 9-bromopaullone]
- motor neuron survival (in words) (motor neurons): promote motor neuron survival
- SMN levels in motor neurons (in words) (SMN [5]): without increasing SMN protein levels

Molecule: C=C(C)[C@H]1Cc2c(ccc3c2O[C@@H]2COc4cc(OC)c(OC)cc4[C@@H]2C3=O)O1 [roteonone]
- spot intensity in ES-derived motor neurons (SMN [5]): decrease
- SMN levels in motor neurons (in words) (SMN [5]): decrease

- p-GSK-Ser9 phosphorylation (in words) [3]: promoted phosphorylation of p-GSK-Ser9
Molecule: CHIR98014
- SMN level fold increase (SMN [2]): over 2.5 fold
